Key:
[1] = system: permanent 2-VO rats (chronic cerebral hypoperfusion); assay: Morris water maze in permanent 2-VO (BCCAO) rats; type: in vivo, rat; settings: Piracetam 600 mg/kg
Description: Chronic cerebral hypoperfusion was proceeded by a permanent, bilateral occlusion of the common carotid arteries (2-VO) of adult rats. The rats were anesthetized with 10% trichloro-acetaldehyde, and temperature probe was inserted into the rectum, and a separate heating lamp was used to maintain rectal temperature at normothermic level. After a midline neck skin incision, the common carotid artery were exposed and ligated by a 5-0 nylon suture.
Rats were randomly divided into six experimental groups (20 rats/each group): one sham-operated group, one vehicle control group, one piracetam-treated group (600 mg/kg), and three dl-PHPB-treated groups (13, 39, and 129 mg/kg). In 10 days after onset of 2-VO, drugs and vehicle were administered orally to rats for 21 days (one time/each day). The spatial learning and memory capability of rats were detected by Morris water maze in the 25-30 days after operation. The Morris water test was commenced at 40 min after drugs treated. The biochemical and pathology assays were conducted later (in 24 h) after behavioral tests.
Subjects were tested in a Morris water maze. This test is based on a standardized assessment of spatial learning ability. The water maze apparatus consisted of a circular, stainless pool (120 cm in diameter, 60 cm in height). It was placed in a dimly lit, sound-proof test room. Multiple distant cues around the room (window, cabinets, furniture) were kept in the same location throughout the experiments. The water was filled to a depth of 40 cm at 25±1° C. and was made opaque by adding milk powder to prevent visualization of the platform. A transparent platform (10 cm diameter) was put 1.5 cm below the surface of the water. The tank was divided into four quadrants with the platform in a fixed position in one quadrant. The subjects were placed into the maze facing the pool wall and were allowed two trials per day, 60 s per trial, to find the hidden platform. If the subject found the platform within the 60 s, it was given a 10-s rest period on the platform between trials. If the pedestal was not located within the time allotted, the subject was placed on to the platform and allowed 10 s until the next trial. The escape latency (time to reach the platform) was used to assess acquisition of the water maze task. Sessions were repeated for five consecutive days. On the sixth day, the platform was removed and the rat was allowed to search for the platform for 60 s (probe test). The time in the platform quadrant and latency time to cross platform location were recorded to measure the spatial learning ability without the influence of chance encounters with the platform. The Morris water maze sessions were recorded with a video camera for offline analysis.

GFAP = GFAP immunohistochemistry, activated astrocytes of 2-VO rats; type: in vivo, rat
Experimental: The method for tissue fixation was described above. Serial coronal sections (40 μm) of the brains were cut through the dorsal hippocampus on a freezing microtome and collected in 6-well plates containing 0.01 M PBS. The detection of GFAP and BDNF immunoreactivity was performed using a conventional avidin-biotin-immunoperoxidease technique.
For quantitative analysis, one from every five samples in a continuous series of hippocampal or cortical tissue sections was taken, and was processed immunohistochemically. Thus, three slides were taken from each rat, and were read under an objective (×1.6) microscope. The total area of positively stained neurons was counted with Image-pro Plus 5.0 software.
Cerebral damage caused by hypoperfusion may be the basis for spatial learning and memory impairment, including earliest white matter damage, accompanied by an increase of astrocytes and microglia activation. Glial fibrillary acidic protein (GFAP) immunohistochemical staining can be used to label the activated astrocytes. 2-3 photos were taken from each selected slices in the same regions. The number of the GFAP positive astrocytes was calculated as the average value of the region. Four anatomical regions were selected to observe: the cortex, hippocampus, corpus callosum and optic tract.

[2] = 1st of 5 M/R/T/L column groups (day not printed)
[3] = 2nd of 5 M/R/T/L column groups (day not printed)
[4] = 3rd of 5 M/R/T/L column groups (day not printed)
[5] = 4th of 5 M/R/T/L column groups (day not printed)
[6] = 5th of 5 M/R/T/L column groups (day not printed)

NC(=O)CN1CCCC1=O [Piracetam, reference compound] was tested, and the “search strategy times, linear mode (L)” value [1, 2] was 1, the “search strategy times, marginal mode (M)” value [1, 2] was 10 and the “search strategy times, random mode (R)” value [1, 2] was 15. For the same molecule, the “search strategy times, tendency mode (T)” value [1, 2] was 14, the “search strategy times, linear mode (L)” value [1, 3] was 8 and the “search strategy times, marginal mode (M)” value [1, 3] was 3. For the same molecule, the “search strategy times, random mode (R)” value [1, 3] was 11, the “search strategy times, tendency mode (T)” value [1, 3] was 17 and the “search strategy times, linear mode (L)” value [1, 4] was 10. For the same molecule, the “search strategy times, marginal mode (M)” value [1, 4] was 1, the “search strategy times, random mode (R)” value [1, 4] was 6 and the “search strategy times, tendency mode (T)” value [1, 4] was 23. The “search strategy times, linear mode (L)” value [1, 5] was 10, the “search strategy times, marginal mode (M)” value [1, 5] was 1 and the “search strategy times, random mode (R)” value [1, 5] was 7. The “search strategy times, tendency mode (T)” value [1, 5] was 23, the “search strategy times, linear mode (L)” value [1, 6] was 19 and the “search strategy times, marginal mode (M)” value [1, 6] was 1. The “search strategy times, random mode (R)” value [1, 6] was 8, the “search strategy times, tendency mode (T)” value [1, 6] was 12 and the “GFAP-positive cells in the optic tract” value (GFAP; Piracetam, 21 days) was “significantly less than the vehicle group”. The “GFAP-positive cells in the hippocampus” value (GFAP; administration of 21 days, P<0.05 or P<0.01) was “significantly less than in the vehicle group” and the “GFAP-positive cells in the cortex” value (GFAP; administration of 21 days, in particular dl-PHPB 39 mg/kg (P<0.01)) was “significantly less than in the vehicle group”.
